Results: patent US9814714B2, “Kinase modulation, and indications therefor” (Plexxikon Inc., priority 2015, dated 2017)
Where two headings read alike, the source gives them in different places.

Assays:
[1] = tested on: pERK in COLO829 cells (BRAF^V600E, heterozygous); experiment: Phospho-ERK AlphaScreen assay, pERK inhibition in COLO829; format: cell-based; details: Homo sapiens, COLO-829, 1 h, read-out: pERK inhibition IC50 COLO829
Procedure: (§1) Phospho-ERK AlphaScreen® assay: The degree of ERK phosphorylation was determined using an AlphaScreen® assay where an increase in ERK1/2 phosphorylation at Thr202/Tyr204 brought the donor and acceptor AlphaScreen® beads into close proximity, generating a signal for quantification. To determine the effects of compound treatment on phosphorylation of ERK1/2, cells were plated in a 96-well plate and treated with an 8-point titration of compound for one hour at 37° C. before lysis. To detect pERK, cell lysates were incubated with streptavidin-coated AlphaScreen® donor beads, anti-mouse IgG AlphaScreen® acceptor beads, a biotinylated anti-ERK1/2 rabbit antibody, and a mouse antibody that recognizes ERK1/2 only when it is phosphorylated on Thr202 and Tyr204. The biotinylated ERK1/2 antibody binds to both the streptavidin-coated AlphaScreen® donor beads and to ERK1/2 (regardless of its phosphorylation state), and the phospho-ERK1/2 antibody binds to the acceptor beads and to ERK1/2 that is phosphorylated at Thr202/Tyr204. An increase in ERK1/2 phosphorylation at Thr202/Tyr204 brings the donor and acceptor AlphaScreen® beads into close proximity, generating a signal that can be quantified on an EnVision reader (Perkin Elmer).
(§2) Using AlphaScreen® technology, the ability of Formula I to affect the phosphorylation of ERK and MEK in the cells was measured quantitatively. Following treatment with compound, the cells were lysed, and a sample of the lysate was transferred to an assay plate. The lysate was mixed with antibodies directed against total ERK/MEK, antibodies that recognize specific phosphorylation sites on ERK/MEK, AlphaScreen® anti-mouse IgG Acceptor beads, and Streptavidin Donor beads. Upon excitation of the donor beads with laser light at 680 nm, singlet oxygen was produced. This singlet oxygen was rapidly quenched, unless the AlphaScreen® Acceptor beads were in close proximity, in which case a proximity signal can be measured at 580 nm. In the presence of phosphorylated ERK/MEK, there is a very strong proximity signal.
(§3) 1. One day before the assay, 50,000 cells were plated in each well of a 96-well tissue-culture-treated plate (Corning #3610) in a 50 μL volume. Cells were incubated at 37° C. overnight.
(§4) 2. Compounds were diluted in DMSO to 500× final concentration. Each compound was plated as an 8-point titration, using 1:3 dilutions in DMSO. The maximum concentration was about 5 mM.
(§5) 3. 1 μl of compound was added to each well of a 96-well polypropylene plate (Corning #3363). For A375, COLO829, SK-MEL-3, HCT116, and HT-29, the high control was DMSO, and the low control was 10 μM PLX4720 (CAS No. 918505-84-7). For B9 and IPC-298, the high control was 3.33 μM PLX4720, and the low control was DMSO. 4. 249 μL growth media was added to compounds, diluting them 250-fold. 5. […] The compound was incubated with the cells at 37° C. for one hour. 6. The media was aspirated, and the cells were lysed in 50 μL of ice-cold 1× Cell Lysis buffer. The plates were incubated on ice for 5 minutes to allow complete lysis of the cells. 7. A mixture of biotinylated donor antibody, acceptor antibody, and anti-mouse IgG AlphaScreen® acceptor beads in 1× AlphaLISA immunoassay buffer was prepared. 8. 5 μL of lysate was transferred to a 384-well assay plate (Perkin Elmer #6005359). 5 μL of the antibody and acceptor bead mixture was added. The plates were spinned.

[2] = tested on: pERK in B9 cells (HRAS^Q61L); experiment: Phospho-ERK AlphaScreen assay, pERK activation in B9; format: cell-based, murine; details: Mus musculus
Procedure: as §1, §2, §3, §4, §5

[3] = tested on: pERK in HCT116 cells (KRAS^G13D); experiment: Phospho-ERK AlphaScreen assay, pERK activation in HCT116; format: cell-based; details: Homo sapiens, HCT-116
Procedure: as §1, §2, §3, §4, §5

COLO829 cells = experiment: Growth inhibition assay (CellTiter-Glo), COLO829; format: cell-based; details: Homo sapiens
Procedure: Growth inhibition assay: Cells were plated into a 96-well plate at a density of 3000 cells per well and allowed to adhere overnight. Compounds were dissolved in DMSO, diluted 3-fold to create an 8-point titration and added to cells. After a 72-hour incubation, cell viability was examined using CellTiter-Glo® (Promega).
In order to determine the effects of Formula I on proliferation, a growth assay was established using melanoma cells (A375 and COLO829) and colorectal carcinoma cells (COLO205, HT-29) which each express the BRAFV600E mutation. To show selectivity over wild-type BRAF, several BRAF wild-type cell lines (K562, NOMO-1, MV-4-11 and ML-2) were also examined in the growth assay. The growth assay implemented the Promega CellTiter-Glo Luminescent Cell viability assay, which gives a luminescent readout that is proportional to the amount of ATP present in a cell sample. As ATP levels directly correlate with the number of viable cells, the luminescent signal can be used to determine the potency of Formula I to block the proliferation of the cell lines of interest.
1. 3,000 cells were plated in each well for cell lines A375, COLO205, COLO829, HT-29, and SK-MEL-3. 25,000 cells were plated in each well for cell lines K562, ML-2, MV-4-11, and
NOMO-1 of a 96-well tissue-culture-treated plate (Corning #3610) in a 50 μL volume. Cells were incubated overnight at 37° C.
2. Each test compound was plated as an 8-point titration, using 1:3 dilutions in DMSO. The maximum concentration was about 5 mM. Dilute DMSO and test compound of Formula I 1:250 in growth media.
3. 50 μL of the diluted compound was transferred into 50 μL cells, for a 500-fold final compound dilution (maximum concentration is typically 10 μM and DMSO concentration is 0.2%). The cells were incubated with DMSO/compound for 3 days at 37° C. in 5% CO2.
4. Cell Titer-Glo Luminescent Assay Reagent was brought to room temperature and reconstituted as directed in the product manual. The cell cultures were also brought to room temperature for about 20-30 minutes. […] Luminescence was measured on a Tecan Safire plate reader. […]

COLO205 cells = experiment: Growth inhibition assay (CellTiter-Glo), COLO205; format: cell-based; details: Homo sapiens
Procedure: Cells were incubated overnight at 37° C.
2. […] The maximum concentration was about 5 mM.

[4] = B9, HRAS^Q61L, concentration increasing pERK to 50% compared to positive control 10 μM PLX4720, read-out: pERK activation EC50 B9
[5] = read-out: pERK activation Mean EC50, B9
[6] = HCT116, KRAS^G13D, concentration increasing pERK to 50% compared to positive control 10 μM PLX4720, read-out: pERK activation EC50 HCT116
[7] = read-out: pERK activation Mean EC50, HCT116
[8] = COLO829, BRAF^V600E heterozygous, one hour treatment
[9] = COLO-829, 72-hour incubation, read-out: In vitro growth inhibition IC50, COLO829
[10] = COLO 205, 72-hour incubation, read-out: In vitro growth inhibition IC50, COLO205

O=C(c1c(F)ccc(NS(=O)(=O)N2CC[C@@H](F)C2)c1F)c1c[nH]c2ncc(-c3cnc(C4CC4)nc3)cc12 [Formula I, (3R)—N-[3-[5-(2-cyclopropylpyrimidin-5-yl)-1H-pyrrolo[2,3-b]pyridine-3-carbonyl]-2,4-difluorophenyl]-3-fluoropyrrolidine-1-sulfonamide]
IC50 [1]: 18 nM | EC50 [2, 4]: > 200000 nM | EC50 [2, 5]: ≥ 10000 nM | EC50 [3, 6]: > 200000 nM | EC50 [3, 7]: 10000 nM | IC50 (COLO829 cells; COLO-829, 72 h, Table 4, melanoma, BRAF V600E/WT, RAS WT, 3 days, read-out: Growth IC50 Colo829): 100 nM | IC50 (COLO205 cells; COLO 205, 72 h, Table 4, colorectal adenocarcinoma, BRAF V600E/WT, RAS WT, 3 days, read-out: Growth IC50 Colo205): 10 nM

CCN(C)S(=O)(=O)Nc1ccc(F)c(C(=O)c2c[nH]c3ncc(-c4cnc(C5CC5)nc4)cc23)c1F [Formula II, 5-(2-cyclopropylpyrimidin-5-yl)-3-[3-[[ethyl(methyl)sulfamoyl]amino]-2,6-difluoro-benzoyl]-1H-pyrrolo[2,3-b]pyridine]
IC50 [1, 8]: 2.1 nM | EC50 [2, 4]: > 200000 nM | EC50 [3, 6]: > 200000 nM | IC50 (COLO829 cells; [9]): 530 nM | IC50 (COLO205 cells; [10]): 160 nM

CCCS(=O)(=O)Nc1ccc(F)c(C(=O)c2c[nH]c3ncc(-c4ccc(Cl)cc4)cc23)c1F [Vemurafenib, vemurafenib, reference compound]
IC50 [1, 8]: 41 nM | EC50 [2, 4]: 360 nM | EC50 [2, 5]: 560 nM | EC50 [3, 6]: 340 nM | EC50 [3, 7]: 286 nM | IC50 (COLO829 cells; [9]): 690 nM | IC50 (COLO205 cells; [10]): 250 nM
